How the values were obtained:
EphA4 kinase = target: T1, EphA4 kinase (Homo sapiens, UniProt P54764); assay: EphA4 kinase enzymatic assay (TR-FRET); type: biochemical; details: for IC50: 25 μM ATP, recombinant His6-TEV-EphA4 (aa. 615-911); for EphA4 Kinase max inhibition in %: maximum percent inhibition (value in parentheses)
T1 construct: His6-TEV-EphA4 (36 KD) (aa. 615-911); His6 (N); TEV cleavage site (N); made in house; host or cells: Sf9 (baculovirus)
T1 sequence (P54764 615-911): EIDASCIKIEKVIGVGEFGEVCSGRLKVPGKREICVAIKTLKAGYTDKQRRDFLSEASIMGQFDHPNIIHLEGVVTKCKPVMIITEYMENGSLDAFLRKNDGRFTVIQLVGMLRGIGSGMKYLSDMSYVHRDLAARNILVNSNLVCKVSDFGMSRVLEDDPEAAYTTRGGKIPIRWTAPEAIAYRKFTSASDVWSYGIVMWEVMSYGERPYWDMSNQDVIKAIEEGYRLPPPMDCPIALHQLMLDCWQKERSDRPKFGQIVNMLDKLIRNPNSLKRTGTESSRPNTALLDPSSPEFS
Procedure: Recombinant EphA4 kinase His6-TEV-EphA4 (36 KD) (aa. 615-911) was expressed in Sf9 using baculovirus expression system. Hi-tagged protein was purified by high performance liquid chromatography in two step, using a His Trap HP column and a heparin column. The potency of compounds to inhibit EphA4 kinase phosphorylation was measured by an enzymatic assay based on time resolved fluorescence energy transfer assay format (TR-FRET), using Eu-W1024 anti-pTyr antibody (Perkin Elmer, USA) as a donor and SureLight APC (Perkin Elmer, USA) as an acceptor.
Biotinylated Poly(Glu Tyr) peptide (50 nM) was incubated in 384-well with 25 μM ATP (Sigma) and 10 ng EphA4 kinase in NEBuffer (New England Biolabs) for 60 minutes at rt. The reaction was stopped by 15 mM of EDTA solution for 10 minutes at rt. The detection mixture containing 0.5 nM Eu-W1024 anti-pTyr antibody (Perkin Elmer, USA) and 50 nM SureLight APC (Perkin Elmer, USA) was added to the wells and the plate was incubated for 30 min at rt, while protected from light. Energy transfer signal was measured using a Victor 2V (excitation filter 340, emission filter 615 and 665, delay time 50 μs). Results were expressed as ratios of the absorbencies 665/615.
(§1) Compounds were titrated in duplicate at 11 points concentration starting at 100 μM with a 3 fold increment. Compounds were diluted in DMSO. […] Percentage inhibition for each compound was then calculated based on the value of the 100% inhibition. Concentration-response curves were represented and the concentrations for 50% inhibition (IC50) were calculated.

[1] = target: T2, human form of EphA4 receptor (Homo sapiens, UniProt P54764); assay: EphA4 cell-based assay (pGAS-luciferase in EphA4-transfected CHO-K1 cells); details: for IC50: inflexion point, read-out: EphA4 Cell Assay IP; for EphA4 Cell Assay maximum percent inhibition: value in parentheses
T2 construct: expressed in transfected cells; host or cells: CHO-K1, transiently transfected with EphA4 in pCMV6-XL5
Text: A cell-based assay was used to measure the potency of the compounds on the human form of EphA4 receptor over-expressed in Chinese Hamster Ovary cell line, CHO-K1 cells (Merck Collection). The cell assay was based on a novel signaling pathway of EphA4, which involves activation of the tyrosine kinase Jak2 and the transcriptional activator Stat3 (39).
Reagents: The expression constructs of EphA4 were subcloned into the expression vector pCMV6-XL5 (Origene, Md., USA) (clone from Merck Kinase Library). The luciferase construct that was linked to the Stat1-responsive enhancer (pGAS-Luc) was bought from Stratagene (USA). The renilla construct that linked to an empty vector CMV was bought from Promega (USA).
Transfection and Luciferase Assay: CHO-K1 cells were plated in T-175 cell culture bottle in DMEM medium supplemented with 10% fetal bovine serum, 1 mM sodium pyruvate, 2 mM L-glutamine and 1.5 g/L sodium bicarbonate. When cell reached 70-80% confluence, transfections were performed in T-175 culture flasks, using Lipofectamine 2000™ transfection reagent (Invitrogen) according to the manufacturer's directions. For the luciferase assay CHO-K1 cells were co-transfected the next day with […] of pGAS-Luc, 70 mg of EphA4, and 5 mg of empty vector pRL-CMV, which encoded the Renilla luciferase, and was included in the transfection mix for normalization. Six hours after transfection the cells were trypsinized and plated at 4.105 cells/ml into 96 well Black/Clear Poly-D-Lysine coated plates (Biocoat) that had been pre-spotted with compounds. Cells were lysed the next day using the Reporter Lysis Buffer (Promega), and the luciferase activity was measured using the Dual Luciferase Assay (Promega) following the manufacturer's directions. The Firefly and Renilla luminescences are read consecutively on a Top-Count (Perkin-Elmer). Results are expressed as a ratio of the two luminsescence: Firefly Luciferase/Renilla Luciferase. Cell viability was assessed on parallel plates using the Cell Glo Assay (Promega) following the manufacturer's directions. Results are expressed as percent of cell death in comparison with vehicle-treated wells.
Compounds were titrated in duplicate at 10 points concentration starting at 100 μM with a 1.5 fold increment. Concentration-response curves were represented and the concentrations at the inflexion point (IP) were calculated. The maximum effect was given by the maximum percent inhibition calculated from the results of the control wells (containing only DMSO).

C2C12 cells = assay: Proliferation assay (cell confluence), C2C12 cells; type: cell-based, mouse; details: at 5 μM
Procedure: C2C12 were plated at 15,000 cells per well and then differentiated into myotubes with DMEM supplemented with 2% horse serum for 3 days in 24 well ImageLock™ plate (Essen Instruments, Mich., USA). Primary Rat cortical astrocytes were plated at 3.105 cells/ml onto 24 well ImageLock™ plate.
Cells were placed into the IncuCyte™ at 37° C. and 95% CO2/5% O2, for two to three days. During this time, the cells within each well were repeatedly imaged at fixed time intervals (every three hours). The IncuCyte™ system automatically monitored the proliferation using the percentage of confluence. Percent of confluence can be graphed over time to evaluate the characteristics of proliferation in the presence of pharmacological agents.
[…] The percentage of reduction of cell confluence was calculated from the AUCs in comparison with the AUCs of the control wells (1% DMSO).

P60c-src = target: T3, P60c-src (Homo sapiens, UniProt P12931); assay: Src kinase counterscreen enzymatic assay (TR-FRET); type: biochemical; details: 0.5 μM ATP
T3 construct: purchased Upstate biotechnology, USA
Procedure: Counterscreen assays were developed for the tyrosine kinases src kinase and jak2 kinase, with a format essentially identical to the EphA4 kinase TR-FRET format. Jak2 (50 ng) (Cell Signaling, USA) was incubated with 0.5 μM of biotinylated FLT3 peptide (Cell Signaling, USA) in presence of 5 μM of ATP (Sigma). P60c-src (10 U/well) (Upstate biotechnology, USA) was incubated with biotinylated Poly(Glu Tyr) peptide (100 nM) in presence of 0.5 μM of ATP. The enzymatic reaction was stopped after 60 min by adding 15 mM EDTA. The detection reaction and energy transfer signal measurements were similar to those previously described. Results were expressed as ratios of the absorbencies 665/615.
as §1

T2 sequence (P54764 20-986): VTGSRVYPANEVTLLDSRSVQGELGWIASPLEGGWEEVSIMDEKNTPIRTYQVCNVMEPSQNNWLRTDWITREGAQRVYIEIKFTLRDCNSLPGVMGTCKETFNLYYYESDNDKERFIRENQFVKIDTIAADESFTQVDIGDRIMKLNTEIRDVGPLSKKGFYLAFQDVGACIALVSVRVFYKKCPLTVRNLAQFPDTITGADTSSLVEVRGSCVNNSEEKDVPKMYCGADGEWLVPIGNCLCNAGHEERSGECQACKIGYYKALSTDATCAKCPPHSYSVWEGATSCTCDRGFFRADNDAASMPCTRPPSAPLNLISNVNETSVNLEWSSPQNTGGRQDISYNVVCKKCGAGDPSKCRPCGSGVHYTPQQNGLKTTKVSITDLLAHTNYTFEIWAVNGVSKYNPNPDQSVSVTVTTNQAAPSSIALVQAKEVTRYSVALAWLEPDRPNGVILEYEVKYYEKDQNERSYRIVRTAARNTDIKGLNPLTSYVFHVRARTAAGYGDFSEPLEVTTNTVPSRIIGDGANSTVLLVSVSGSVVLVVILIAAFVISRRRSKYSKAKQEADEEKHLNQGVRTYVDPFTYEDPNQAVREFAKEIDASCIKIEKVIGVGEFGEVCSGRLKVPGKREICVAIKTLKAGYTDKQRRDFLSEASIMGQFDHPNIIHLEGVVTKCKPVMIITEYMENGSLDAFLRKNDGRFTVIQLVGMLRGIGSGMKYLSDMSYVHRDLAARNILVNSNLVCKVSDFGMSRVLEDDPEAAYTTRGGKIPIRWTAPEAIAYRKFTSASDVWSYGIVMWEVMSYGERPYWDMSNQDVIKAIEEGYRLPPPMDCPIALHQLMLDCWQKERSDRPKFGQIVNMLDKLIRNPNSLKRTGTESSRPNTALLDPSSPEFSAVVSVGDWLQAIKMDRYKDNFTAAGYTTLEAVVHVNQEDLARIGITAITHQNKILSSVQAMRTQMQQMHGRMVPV
T3 sequence (P12931 whole entry): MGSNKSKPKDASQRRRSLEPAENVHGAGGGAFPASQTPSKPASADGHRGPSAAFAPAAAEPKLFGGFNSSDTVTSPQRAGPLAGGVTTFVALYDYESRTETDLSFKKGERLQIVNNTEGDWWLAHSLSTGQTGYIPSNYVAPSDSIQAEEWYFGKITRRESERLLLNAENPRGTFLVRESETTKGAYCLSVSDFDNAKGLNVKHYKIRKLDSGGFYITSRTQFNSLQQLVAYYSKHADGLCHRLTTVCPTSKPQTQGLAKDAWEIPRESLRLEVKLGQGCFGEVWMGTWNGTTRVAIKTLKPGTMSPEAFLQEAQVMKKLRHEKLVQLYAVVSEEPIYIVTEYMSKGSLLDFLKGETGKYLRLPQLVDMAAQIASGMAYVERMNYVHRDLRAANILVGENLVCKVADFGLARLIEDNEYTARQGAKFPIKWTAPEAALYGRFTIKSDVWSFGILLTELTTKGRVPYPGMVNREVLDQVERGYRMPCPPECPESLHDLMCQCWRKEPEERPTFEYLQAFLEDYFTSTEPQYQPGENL

Compound	IC50 (EphA4 kinase) [µM]	EphA4 Kinase max inhibition in % (EphA4 kinase) [%]	IC50 [1] [µM]	EphA4 Cell Assay maximum percent inhibition [1] [%]	% Reduction Confluence C2C12 Cells (C2C12 cells) [% at 5 μM]	IC50 (P60c-src) [µM]
Cc1ccc(NC(=O)c2cccc(C(F)(F)F)c2)cc1-c1ccc(-n2cccn2)cc1 [Example 120]	1.59	70	5.6	50	33.3	> 100
Cc1ccc(NC(=O)c2cccc(C(F)(F)F)c2)cc1-c1ccc(O)c(NC=O)c1 [Example 133]	4.8	93	8.3	42	17.5	> 100

— US20100197688A1, “EPHA4 RTK INHIBITORS FOR TREATMENT OF NEUROLOGICAL AND NEURODEGENERATIVE DISORDERS AND CANCER” (priority 2008, published 2010)
